Test system: LPS-induced IL-6 release
Assay: Inhibition of LPS-induced IL-6 release in ex vivo blood samples during intravenous infusion of E5564
Parameters: species or system beagle dogs
Procedure: (§1) FIG. 5 is a pair of graphs showing ex vivo analysis of active E5564 during intravenous infusion. Activity of E5564 was determined during intravenous infusion of 0.24 mg/kg/hour E5564 (□,∘) or 2.4 mg/kg/hour E5564 (▪,●) into female (upper panel) or male (lower panel) beagle dogs. At the indicated times, blood was drawn and analyzed for E5564 activity by adding 1 ng/ml LPS, incubating for three hours at 37° C., and assaying the plasma fraction for IL-6 by bioassay, as is described in the Materials and Methods section (below). Each value represents the mean±standard deviation of samples assayed in duplicate from each animal. The zero hour sample was taken prior to infusion.
as §1, with “FIG. 6” for “FIG. 5”, “adding 10” for “adding 1”
as §1, with “FIG. 7” for “FIG. 5”, “adding 100” for “adding 1”
To assess the activity of E5564 over multiple time points from a single treated animal, we employed an ex vivo assay, as is mentioned above, to test for active drug in samples of blood drawn from a treated animal. Samples of blood were drawn from beagle dogs infused with E5564 over a period of 24 hours. One dog of each sex was tested under each of two dose regimens: a low dose of 0.24 mg/kg/hour and a high dose of 2.4 mg/kg/hour.
Blood samples were taken from these dogs at predose, 4 hours after initiation of infusion, and 24 hours after initiation of infusion. The blood samples were challenged with 0, 1, 10, or 100 ng/ml LPS, and then incubated for three hours. The samples were then analyzed for activation by LPS, using induction of cytokine response as a readout.
LPS from Escherichia coli (0111:B4) was purchased from List Biologicals (Campbell, Calif.). LPS was dissolved in sterile water at 1 mg/ml and stored at −20° C. Prior to use, LPS was sonicated in a bath sonicator (VW-380; Heat Systems-Ultrasonics Inc., Farmingdale, N.Y.) for 1-2 minutes immediately before use and diluted into Ca^2+, Mg^2+ free Hanks balanced salt solution (HBSS; Sigma).
Dogs were treated with E5564 (0.24 or 2.4 mg/kg/hour) dissolved in a mixture of placebo solution (10% lactose monohydrate, 0.045% Na2HPO4.7H2O, 0.035% NaH2PO4.H2O, 0.006% NaOH; pH 7.4±0.3) and 5% dextrose (1:4) by intravenous infusion via indwelling catheter for 24 hours at a rate of 2 mg/kg/hour.
(for time zero samples), or incubated with the indicated concentrations of LPS for three hours. Plasma was then prepared and immediately frozen at −80° C. Samples were stored at −80° C. until assay.
B9 cells were the gift of Dr. Mary Rodrick (Beth Israel Deaconess Hospital, Boston, Mass.). They were grown in Iscove's DMEM medium containing 5% fetal bovine serum (FBS), […] 2-mercaptoethanol, 2 mM L-glutamine, and 100 U/ml penicillin/streptomycin. […]

Structure (SMILES): CCCCCC/C=C\CCCCCCCCCC(=O)N[C@H]1[C@H](OC[C@H]2O[C@H](OP(=O)(O)O)[C@H](NC(=O)CC(=O)CCCCCCCCCCC)[C@@H](OCCCCCCCCCC)[C@@H]2O)O[C@H](COC)[C@@H](OP(=O)(O)O)[C@@H]1OCC[C@@H](CCCCCCC)OC [E5564, α-D-Glucopyranose, 3-O-decyl-2-deoxy-6-O-[2-deoxy-3-O-[(3R)-3-methoxydecyl)-6-O-methyl-2-[[(11Z)-1-oxo-11-octadecenyl)amino]-4-O-phosphono-β-D-glucopyranosyl]-2-[(1,3-dioxotetradecyl)amino]-,1-(dihydrogen phosphate)]
- Inhibition of response to LPS (IL-6) vs predose (infusion 0.24 mg/kg/hour, 1 ng/ml LPS, 4 hours after beginning infusion): ≥ 98%
- Inhibition of response to LPS (IL-6) vs predose (infusion 0.24 mg/kg/hour, 1 ng/ml LPS, end of infusion (24 hours)): complete
- Inhibition of response to LPS (IL-6) vs predose (infusion 0.24 mg/kg/hour, 10 ng/ml LPS, end of infusion (24 hours)): ~85%
- Maximum inhibition of response to LPS (IL-6) vs predose (infusion 0.24 mg/kg/hour, 100 ng/ml LPS, end of infusion (24 hours)): 34-52%
- Inhibition of response to LPS (IL-6) vs predose (infusion 2.4 mg/kg/hour, 1 ng/ml LPS, 4 hours after beginning infusion): complete inhibition
- Inhibition of response to LPS (IL-6) vs predose (infusion 2.4 mg/kg/hour, 1 ng/ml LPS, end of infusion (24 hours)): complete
- Inhibition of response to LPS (IL-6) vs predose (infusion 2.4 mg/kg/hour, 10 ng/ml LPS, 4 hours): nearly completely inhibited
- Inhibition of response to LPS (IL-6) vs predose (infusion 2.4 mg/kg/hour, 10 ng/ml LPS, end of infusion (24 hours)): complete
- Inhibition of response to LPS (IL-6) vs predose (infusion 2.4 mg/kg/hour, 100 ng/ml LPS, 4 hours): nearly completely inhibited
- Inhibition of response to LPS (IL-6) vs predose (infusion 2.4 mg/kg/hour, 100 ng/ml LPS, end of infusion (24 hours)): > 90%

Source: patent US20050215517A1, “Use of an anti-endotoxin drug in the prevention and treatment of disease” (priority 1999, published 2005)
